From BindingDB's records for doi:10.7270/Q2N8786X (Vanderbilt Screening Center For Gpcrs, Ion Channels and …, 2009)

Target: T1, Muscarinic acetylcholine receptor M5 (Homo sapiens, UniProt P08912)
T1 sequence (P08912 whole entry): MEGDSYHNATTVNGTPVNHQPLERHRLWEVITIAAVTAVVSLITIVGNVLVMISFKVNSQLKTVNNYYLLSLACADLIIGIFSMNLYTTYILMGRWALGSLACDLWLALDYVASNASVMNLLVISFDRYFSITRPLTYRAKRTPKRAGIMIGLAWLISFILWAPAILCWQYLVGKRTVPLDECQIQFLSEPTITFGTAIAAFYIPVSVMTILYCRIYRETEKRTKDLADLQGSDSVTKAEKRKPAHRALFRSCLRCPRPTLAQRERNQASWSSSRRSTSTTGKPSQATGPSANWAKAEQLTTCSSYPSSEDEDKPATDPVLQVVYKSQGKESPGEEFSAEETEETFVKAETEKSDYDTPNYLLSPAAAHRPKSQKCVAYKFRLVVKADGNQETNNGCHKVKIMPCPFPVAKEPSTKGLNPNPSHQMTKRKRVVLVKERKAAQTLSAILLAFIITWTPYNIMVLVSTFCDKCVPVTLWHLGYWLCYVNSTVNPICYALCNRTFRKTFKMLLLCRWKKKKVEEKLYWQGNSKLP
Assay: binding competition at muscarinic M5 – biochemical, [3H]N-methylscopolamine (AID 2192)
Conditions: inactive by the depositor's call

For COc1ccc(CN2C(=O)C(=O)c3cc(OC(F)(F)F)ccc32)cc1 [VU0238429], the Ki was 1160 nM.
